Measurements as given in PubChem BioAssay (NCI).
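Assay format: 96-well plates, 48-hour exposure. The concentration for full growth arrest is given as TGI.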

Key:
Assay in all cases: NCI tumour cell line growth inhibition, 48 h
CCRF-CEM leukemia = test system: CCRF-CEM leukemia
HS 578T breast = test system: HS 578T breast
HOP-62 NSCLC = test system: HOP-62 NSCLC
HCC-2998 colon = test system: HCC-2998 colon
PC-3 prostate = test system: PC-3 prostate
T-47D breast = test system: T-47D breast
TK-10 renal = test system: TK-10 renal
OVCAR-8 ovarian = test system: OVCAR-8 ovarian
OVCAR-5 ovarian = test system: OVCAR-5 ovarian
RPMI-8226 leukemia = test system: RPMI-8226 leukemia
SF-268 CNS = test system: SF-268 CNS
NCI-H226 lung = test system: NCI-H226 lung
SF-539 CNS = test system: SF-539 CNS
OVCAR-3 ovarian = test system: OVCAR-3 ovarian
DU-145 prostate = test system: DU-145 prostate
NCI-H23 lung = test system: NCI-H23 lung
K-562 leukemia = test system: K-562 leukemia
RXF 393 renal = test system: RXF 393 renal
SW-620 colon = test system: SW-620 colon
SK-MEL-2 melanoma = test system: SK-MEL-2 melanoma
U251 CNS = test system: U251 CNS
ACHN renal = test system: ACHN renal
M14 melanoma = test system: M14 melanoma
SF-295 CNS = test system: SF-295 CNS
HCT-116 colon = test system: HCT-116 colon
LOX IMVI melanoma = test system: LOX IMVI melanoma
A549 NSCLC = test system: A549 NSCLC
HT29 colon = test system: HT29 colon
OVCAR-4 ovarian = test system: OVCAR-4 ovarian
HCT-15 colon = test system: HCT-15 colon
HL-60(TB) leukemia = test system: HL-60(TB) leukemia
SK-OV-3 ovarian = test system: SK-OV-3 ovarian
MCF7 breast = test system: MCF7 breast
786-0 renal = test system: 786-0 renal
NCI/ADR-RES ovarian = test system: NCI/ADR-RES ovarian
MDA-N = test system: MDA-N
IGROV1 ovarian = test system: IGROV1 ovarian
HOP-92 NSCLC = test system: HOP-92 NSCLC
SNB-19 CNS = test system: SNB-19 CNS
BT-549 breast = test system: BT-549 breast
UACC-257 melanoma = test system: UACC-257 melanoma
SNB-75 CNS = test system: SNB-75 CNS
SN12C renal = test system: SN12C renal
COLO 205 colon = test system: COLO 205 colon
MDA-MB-231 breast = test system: MDA-MB-231 breast
SR leukemia = test system: SR leukemia
MALME-3M melanoma = test system: MALME-3M melanoma
SK-MEL-28 melanoma = test system: SK-MEL-28 melanoma
UACC-62 melanoma = test system: UACC-62 melanoma
MOLT-4 leukemia = test system: MOLT-4 leukemia
A498 renal = test system: A498 renal
KM12 colon = test system: KM12 colon
UO-31 renal = test system: UO-31 renal
NCI-H460 lung = test system: NCI-H460 lung
SK-MEL-5 melanoma = test system: SK-MEL-5 melanoma
MDA-MB-435 = test system: MDA-MB-435
CAKI-1 renal = test system: CAKI-1 renal
EKVX NSCLC = test system: EKVX NSCLC

Molecule `CCCc1c(Cl)nc(Cl)nc1Cl` has a TGI (CCRF-CEM leukemia) of 92.1 nM, a TGI (HS 578T breast) of 27.6 µM and a TGI (HOP-62 NSCLC) of 7.79 µM. For the same molecule, the TGI (HCC-2998 colon) was 15.6 µM, the TGI (PC-3 prostate) was 28.6 µM and the TGI (T-47D breast) was 11.7 µM. The TGI (TK-10 renal) was 18.5 µM, the TGI (OVCAR-8 ovarian) was over 19.9 µM and the TGI (OVCAR-5 ovarian) was 17.5 µM. The TGI (RPMI-8226 leukemia) was over 33.1 µM, the TGI (SF-268 CNS) was over 68 µM and the TGI (NCI-H226 lung) was 0.0913 µM. For the same molecule, the TGI (SF-539 CNS) was 5.84 µM, the TGI (OVCAR-3 ovarian) was 5.46 µM and the TGI (DU-145 prostate) was 9.82 µM. The TGI (NCI-H23 lung) was 4.3 µM, the TGI (K-562 leukemia) was 1530 nM and the TGI (RXF 393 renal) was 4.93 µM. For the same molecule, the TGI (SW-620 colon) was 12.7 µM, the TGI (SK-MEL-2 melanoma) was 4.35 µM and the TGI (U251 CNS) was 7.95 µM. The TGI (ACHN renal) was 10.7 µM, the TGI (M14 melanoma) was over 37.9 µM and the TGI (SF-295 CNS) was 12.3 µM. It also gave a TGI (HCT-116 colon) of 22.8 µM, a TGI (LOX IMVI melanoma) of 0.461 µM and a TGI (A549 NSCLC) of 24.6 µM. For the same molecule, the TGI (HT29 colon) was 4.02 µM, the TGI (OVCAR-4 ovarian) was 26.3 µM and the TGI (HCT-15 colon) was 3.71 µM. For the same molecule, the TGI (HL-60(TB) leukemia) was 3.01 µM, the TGI (SK-OV-3 ovarian) was over 100 µM and the TGI (MCF7 breast) was 16.3 µM. The TGI (786-0 renal) was 11.2 µM, the TGI (NCI/ADR-RES ovarian) was 7.53 µM and the TGI (MDA-N) was 548 nM. It also gave a TGI (IGROV1 ovarian) of over 37.3 µM, a TGI (HOP-92 NSCLC) of 11.9 µM and a TGI (SNB-19 CNS) of 21.1 µM. For the same molecule, the TGI (BT-549 breast) was 4.37 µM, the TGI (UACC-257 melanoma) was 11.1 µM and the TGI (SNB-75 CNS) was 28.1 µM. The TGI (SN12C renal) was 5.51 µM, the TGI (COLO 205 colon) was 0.706 µM and the TGI (MDA-MB-231 breast) was 7.99 µM. For the same molecule, the TGI (SR leukemia) was 2.15 µM, the TGI (MALME-3M melanoma) was 4.95 µM and the TGI (SK-MEL-28 melanoma) was 1450 nM. For the same molecule, the TGI (UACC-62 melanoma) was over 100 µM, the TGI (MOLT-4 leukemia) was 10.7 µM and the TGI (A498 renal) was 34.7 µM. For the same molecule, the TGI (KM12 colon) was 15.8 µM, the TGI (UO-31 renal) was over 55.4 µM and the TGI (NCI-H460 lung) was 12.7 µM. For the same molecule, the TGI (SK-MEL-5 melanoma) was 2.54 µM and the TGI (MDA-MB-435) was 2.44 µM.

With `Cc1c(C(=O)OCc2ccccc2)[n+](=O)c2ccccc2n1[O-]` the TGI (CCRF-CEM leukemia) was 199 nM, the TGI (HS 578T breast) was 72.9 µM and the TGI (HOP-62 NSCLC) was 61.2 µM. It also gave a TGI (HCC-2998 colon) of over 100 µM, a TGI (PC-3 prostate) of over 100 µM and a TGI (T-47D breast) of 57.2 µM. For the same molecule, the TGI (TK-10 renal) was 84.6 µM, the TGI (OVCAR-8 ovarian) was over 100 µM and the TGI (OVCAR-5 ovarian) was over 100 µM. For the same molecule, the TGI (RPMI-8226 leukemia) was 30.5 µM, the TGI (SF-268 CNS) was over 100 µM and the TGI (NCI-H226 lung) was 57.1 µM. It also gave a TGI (SF-539 CNS) of over 100 µM, a TGI (OVCAR-3 ovarian) of over 100 µM and a TGI (CAKI-1 renal) of 80.5 µM. The TGI (DU-145 prostate) was 47.8 µM, the TGI (NCI-H23 lung) was 95.7 µM and the TGI (K-562 leukemia) was over 100000 nM. The TGI (RXF 393 renal) was 69.1 µM, the TGI (SK-MEL-2 melanoma) was over 100 µM and the TGI (U251 CNS) was over 100 µM. The TGI (ACHN renal) was over 100 µM, the TGI (M14 melanoma) was over 100 µM and the TGI (SF-295 CNS) was over 100 µM. It also gave a TGI (EKVX NSCLC) of 91.5 µM, a TGI (HCT-116 colon) of 65.6 µM and a TGI (LOX IMVI melanoma) of 44.8 µM. The TGI (A549 NSCLC) was 70.7 µM, the TGI (HT29 colon) was over 100 µM and the TGI (OVCAR-4 ovarian) was 85 µM. The TGI (HCT-15 colon) was over 100 µM, the TGI (HL-60(TB) leukemia) was 77.4 µM and the TGI (SK-OV-3 ovarian) was over 100 µM. For the same molecule, the TGI (MCF7 breast) was over 100 µM, the TGI (786-0 renal) was over 100 µM and the TGI (NCI/ADR-RES ovarian) was 93.8 µM. For the same molecule, the TGI (MDA-N) was over 100000 nM, the TGI (IGROV1 ovarian) was 34.1 µM and the TGI (HOP-92 NSCLC) was 13.4 µM. For the same molecule, the TGI (SNB-19 CNS) was over 100 µM, the TGI (BT-549 breast) was over 100 µM and the TGI (UACC-257 melanoma) was 56.1 µM. For the same molecule, the TGI (SNB-75 CNS) was 56.5 µM, the TGI (SN12C renal) was over 100 µM and the TGI (COLO 205 colon) was 37.6 µM. It also gave a TGI (MDA-MB-231 breast) of 64.8 µM, a TGI (SR leukemia) of 47.3 µM and a TGI (SK-MEL-28 melanoma) of over 100000 nM. It also gave a TGI (UACC-62 melanoma) of over 100 µM, a TGI (MOLT-4 leukemia) of 43 µM and a TGI (A498 renal) of 94.3 µM. For the same molecule, the TGI (KM12 colon) was over 100 µM, the TGI (UO-31 renal) was 86.3 µM and the TGI (NCI-H460 lung) was over 100 µM. It also gave a TGI (SK-MEL-5 melanoma) of 53.6 µM and a TGI (MDA-MB-435) of 75.2 µM.
